Patent publication US20040110963A1, “Novel hydrazones” (priority 2001, published 2004)
In brackets after ≈: the same amount, converted by molar mass.

Legend:
Assay in all cases: In vitro antibacterial activity (MIC, NCCLS M7-A5 dilution susceptibility test)
Assay type in all cases: cell-based
Escherichia coli DC2 = conditions: for MIC: read-out: Minimum Inhibitory Concentration (MIC) Escherichia coli DC2
Description: (§1) Antimicrobial susceptibility testing was performed in accordance with the National Committee for Clinical Laboratory Standards (NCCLS) procedure [M7-A5, 2001: Methods for Dilution Antimicrobial Susceptibility Tests for Bacteria That Grow Aerobically; Approved Standard-Fifth Edition American National Standard].

[1] = tested on: Staphylococcus aureus 101; conditions: for MIC: read-out: Minimum Inhibitory Concentration (MIC) Staphylococcus aureus 101
Description: as §1

[2] = tested on: Staphylococcus aureus ATCC25923; conditions: for MIC: read-out: Minimum Inhibitory Concentration (MIC) Staphylococcus aureus ATCC25923
Description: as §1

| Molecule | Minimum Inhibitory Concentration (MIC) Escherichia coli DC2 (Escherichia coli DC2) | Minimum Inhibitory Concentration (MIC) Staphylococcus aureus 101 [1] | Minimum Inhibitory Concentration (MIC) Staphylococcus aureus ATCC25923 [2] | MIC (Escherichia coli DC2) | MIC [1] | MIC [2] |
| --- | --- | --- | --- | --- | --- | --- |
| 3,5-Bis-(trifluoromethyl)-N′-(2,3,4-trihydroxy-benzylidene)-benzohydrazide [Example 41] | na (na means not active at concentrations less than 128 μg/ml) | 64 micrograms/ml | 64 micrograms/ml | – | – | – |
| COc1ccc(C(=O)NN=Cc2ccc(O)c(O)c2O)cc1 [Example 39, 4-Methoxy-N′-(2,3,4-trihydroxy-benzylidene)-benzohydrazide] | – | – | – | 64 µg/mL (≈ 212 µM) | 64 µg/mL (≈ 212 µM) | 64 µg/mL (≈ 212 µM) |
| O=C(NN=Cc1cccc(O)c1O)c1ccc(Cl)c(Cl)c1 [Example 40, 3,4-Dichloro-N′-(2,3-dihydroxy-benzylidene)-benzohydrazide] | – | – | – | > 128 µg/mL | 4 µg/mL (≈ 12.3 µM) | 4 µg/mL (≈ 12.3 µM) |
| O=C(NN=Cc1ccc(O)c(O)c1O)c1cccc(Cl)c1-n1cccc1 [Example 42, 3-Chloro-2-pyrrol-1-yl-N′-(2,3,4-trihydroxy-benzylidene)-benzohydrazide] | – | – | – | 128 µg/mL (≈ 344 µM) | 32 µg/mL (≈ 86.1 µM) | 32 µg/mL (≈ 86.1 µM) |
| O=C(NN=Cc1cc(Cl)cc(Cl)c1O)c1cccc(Cl)c1-n1cccc1 [Example 43, 3-Chloro-2-pyrrol-1-yl-N′-(2-hydroxy-3,5-dichloro-benzylidene)-benzohydrazide] | – | – | – | > 128 µg/mL | 2 µg/mL (≈ 4.89 µM) | 2 µg/mL (≈ 4.89 µM) |
| O=C(NN=Cc1cc(O)c(O)cc1O)c1ccccc1-n1cccc1 [Example 44, 2-Pyrrol-1-yl-N′-(2,4,5-trihydroxy-benzylidene)-benzohydrazide] | – | – | – | 128 µg/mL (≈ 379 µM) | 64 µg/mL (≈ 190 µM) | 64 µg/mL (≈ 190 µM) |
| O=C(NN=Cc1ccc(O)c(O)c1O)c1ccc(Cl)c(C(F)(F)F)c1 [Example 45, 4-Chloro-3-trifluoromethyl-N′-(2,3,4-trihydroxy-benzylidene)-benzohydrazide] | – | – | – | 2 µg/mL (≈ 5.34 µM) | 1 µg/mL (≈ 2.67 µM) | 0.5 µg/mL (≈ 1.33 µM) |
| O=C(NN=Cc1cc(Cl)cc(Cl)c1O)c1ccc(Cl)c(C(F)(F)F)c1 [Example 46, 4-Chloro-3-trifluoromethyl-N′-(2-hydroxy-3,5-dichloro-benzylidene)-benzohydrazide] | – | – | – | > 128 µg/mL | 128 µg/mL (≈ 311 µM) | 128 µg/mL (≈ 311 µM) |
